pIC50: −log10 of the molar value.
Key:
[1] = target: T1, glycine receptor of the NMDA receptor complex (Rattus norvegicus, UniProt P35439); test: [3H]-glycine binding assay at the N-methyl-D-aspartate receptor, rat neuronal synaptic membranes (cortices and hippocampi); design: species or system male Sprague-Dawley rats; details: 20 nM [3H]-glycine, pH 7.1, 30 minutes at 4° C.
T1 construct: Freshly dissected cortices and hippocampi are homogenized in 0.32 M sucrose; from tissue; host or cells: synaptic membranes of cortices and hippocampi of adult male Sprague-Dawley rats
Procedure: (§1) The actions of compounds of formula I as antagonists at the glycine receptor of the NMDA receptor complex can be shown by standard tests such as the [^3 H]-glycine binding assay, by functional assays in vitro such as tests for measuring glutamate evoked contractions of the guinea pig ileum, and by tests in vivo such as ischemia induced by carotid occlusion in the gerbil model.
In the [^3 H]-glycine binding assay, neuronal synaptic membranes are prepared from adult (about 250 g) male Sprague-Dawley rats. Freshly dissected cortices and hippocampi are homogenized in 0.32 M sucrose (110 mg/mL). Synaptosomes are isolated by centrifuga-tion (1000×g, 10 min), the supernatant is pelleted (20,000×g, 20 min) and resuspended in double-distilled water. The suspension was centrifuged for 20 minutes at 8,000×g. The resulting supernatant and buffy coat are washed twice (48,000×g, 10 mins, resuspension in double-deionized water). The final pellet is quickly frozen (dry iceethanol bath) under double-deionized water and stored at -70° C.
On the day of the experiment, thawed synaptic membranes are homogenized with a Brinkmann Polytron (tm, Brinkmann Instruments, Westbury, N.Y.) tissue homogenizer in 50 mM tris(hydroxymethyl)aminomethane citrate, pH 7.1. The membranes are incubated with 0. 04% Sufact-AMPS X100 (tm, Pierce, Rockford, Ill.) in buffer for 20 minutes at 37° C. and washed six times by centrifugation (48,000×g, 10 min) and resuspended in buffer. The final pellet is homogenized at 200 mg wet weight/mL of the buffer for the binding assay.
For [^3 H]-glycine binding at the N-methyl-D-aspartate receptor, 20 nM [^3 H]-glycine (40-60 Ci/mmol, New England Nuclear, Boston, Mass.) is incubated with the membranes suspended in 50 mM tris (hydroxymethyl)aminomethane citrate, pH 7.1 for 30 minutes at 4° C. Glycine, 1 mM, is used to define the nonspecific binding. […] Radioactivity is estimated by liquid scintillation counting. […]

[2] = test system: NMDA receptor channel complex; test: inhibition of glutamate evoked contractions of the guinea pig ileum (longitudinal muscle/myenteric plexus); assay type: cell-based; details: 100 μM glutamate; test compound added 5 minutes before the glutamate
Text: as §1
For glutamate evoked contractions of the guinea pig ileum, the methodology is as described previously (Luzzi et. al., Br. J. Pharmacol., 95, 1271-1277 (1989). The longitudinal muscle and associated myenteric plexus are removed and placed in oxygenated modified Krebs-Henseleit solution (118 mM NaCl, 4.7 mM KCl, 2.5 mM CaCl2, 1.2 mM KH2 PO4, 25 mM NaHCO3, and 11 mM glucose). Tissues are suspended on glass rods in organ baths under a resting tension of 0.5 g. After an initial depolarization with 80 mM potassium to remove possible blockade of the NMDA receptor channel complex with magnesium, twitch responses are evoked with 100 μM glutamate. Isometric mechanical responses are recorded. Tissues are equilibrated for at least 2 hours prior to addition of compounds.
A dose response curve for the effect of the unknown on the magnitude of the glutamate-evoked contractions is generated. Glutamate-evoked contractions are generated at 20 minute intervals, with the test compound added 5 minutes before the glutamate. […]

[3] = test system: neuronal damage in the hippocampus; test: gerbil ischemic model (bilateral carotid occlusion), hippocampal neuronal damage rating; assay type: in vivo, adult female Mongolian gerbils
Text: as §1
When testing in vivo using the gerbil ischemic model, adult female Mongolian gerbils (50-70 g) are anesthetized with 2 to 3% halothane. The bilateral common carotid arteries at the neck are exposed and occluded with microaneurysm clips. After 10 min (unless specified), the clips are removed and the blood flow through the carotid arteries is restored and the skin is sutured. Test compounds are administered intraperitoneally both pre- and post-occlusion, for example 45 minutes before and 5 minutes after occlusion of the carotid arteries. Sham-operated animals are treated in the same manner except that the arteries are not clamped. Gross behavioral observations along with motor activity are recorded for 2 hr on the first (24 hr) day following the occlusion. After 4 days, subjects are sacrificed (decapitation), brains are removed, fixed, sectioned and stained with hematoxylin/eosin and cresyl violet.
The brain sections are rated for neuronal damage in the hippocampus using the following rating scale:
1=slight damage (up to 25%)--restricted CA1/subiculum border
2=moderate damage (up to 50%)--obvious damage, restricted to less than half of CA1 field
3=marked damage (up to 75%)--involving greater than half of CA1 field
4=damage extending beyond CA1 field
Results can be reported as the percentage of neuroprotection afforded by a particular dose and dosing regimen.
Sections (7 micron) are evaluated from each brain. Occasionally, asymmetrical damage may be noted and the rating assigned is the average score of the two sides. The average brain damage rating score for each group is recorded, and the damage scores of the drug treated group are compared to the vehicle-treated group using Wilcoxcon-Rank Sum test.
Typical values in this test for compounds according to the invention are illustrated by the following results: for the compound of Example 1, 57% neuroprotection (relative to sham-operated control) when dosed twice with 20 mg/kg body weight intraperitoneally (ip) according to the above regimen; 44% neuroprotection when dosed with 30 mg/kg body weight ip three times at 15, 30, and 45 minutes after induction of ischemia; for the compound of Example 3, 83% neuroprotection when dosed twice with 30 mg/kg body weight ip according to the above regimen; for the compound of Example 1a, 78% neuroprotection when dosed twice with 20 mg/kg body weight ip according to the above regimen.

[4] = dosed twice with 20 mg/kg ip, pre- and post-occlusion (e.g. 45 min before and 5 min after), Example 1: relative to sham-operated control

pIC50 [1] | pIC50 [2] | Structure (SMILES) | neuroprotection ([3]; 30 mg/kg ip three times at 15, 30, and 45 minutes after induction of ischemia) [%] | neuroprotection [3, 4] [%] | neuroprotection ([3]; dosed twice with 30 mg/kg ip, pre- and post-occlusion (e.g. 45 min before and 5 min after)) [%]
7.52 | 6.96 | O=c1[nH]c2cc(Cl)ccc2c(=O)cc1O [Example 1, 8-Chloro-2,5-dihydro-2,5-dioxo-3-hydroxy-1H-benz[b]azepine] | 44 | 57 | 
6.00 |  | COc1cc(=O)c2ccc(Cl)cc2[nH]c1=O [Example 1a, 8-Chloro-2,5-dihydro-2,5-dioxo-3-methoxy-1H-benz[b]azepine] |  | 78 | 
7.01 | 6.00 | O=c1[nH]c2cc(Br)ccc2c(=O)cc1O [Example 3, 8-bromo-2,5-dihydro-2,5-dioxo-3-hydroxy-1H-benz[b]azepine] |  |  | 83

Reference: US5446039A, “Therapeutic benzazapine compounds” (Imperial Chemical Industries, PLC, priority 1991, dated 1995)
